# “And” between values parts separate entries of the source, which are not always exact repeats. Identical values can stand only once. Like-named read-outs stand apart in the source and are kept apart here. Where a SMILES comes first, the peptide text is derived from it. [ ]: non-standard residue; d: D form. dNMeI = CC[C@@H](C)[C@@H](NC)C(=O)O; NMeL = CN[C@@H](CC(C)C)C(=O)O; dNMeL = CN[C@H](CC(C)C)C(=O)O; Sar = CNCC(=O)O
# How the values were obtained:
# [1] = PAMPA
# [2] = Pharmacokinetics and oral bioavailability of D8.3.p1 and D10.1 in Balb/C female mice (PO, SQ, IV); type: in vivo
# Description: In vivo bioavailability assays were conducted in mice and rats. D8.3.p1 and D10.1 were studied in female Balb/C mice by van Voorhis group at University of Washington. D11.2 was evaluated in Sprague Dawley (SD) rats by Robert Griffin’s group at Takeda Pharmaceuticals. D11.3 was studied in the male swiss albino mice by the contract research organization, GVK Biosciences Pvt. Ltd., Hyderabad, India. All animals used in these studies were handled in strict accordance with practices made to minimize suffering. All animal experiments conducted at the University of Washington, USA, and Takeda Pharmaceuticals, USA were approved by the Institutional Animal Care and Use Committee. Animal studies at GVK Biosciences were reviewed and approved by the Institutional Animal Ethics Committee of GVK Biosciences. We selected four designed macrocycles with diverse structures and in vitro rates of permeability for in vivo oral bioavailability studies in the rodent models. Due to the intensive resource requirements for such studies, these studies were conducted by three different research groups. D8.3.p1 and D10.1 were studied in female Balb/C mice by van Voorhis group at University of Washington. D11.2 was evaluated in Sprague Dawley (SD) rats by Robert Griffin’s group at Takeda Pharmaceuticals. D11.3 was studied in the male swiss albino mice by the contract research organization, GVK Biosciences Pvt. Ltd., Hyderabad, India. […] Blood samples were collected at multiple time points and plasma was separated from whole blood using centrifugation and stored at -80°C. […] Samples were mixed, centrifuged, and supernatant harvested for LC-MS analysis. For RP-HPLC analysis, peptides were evaluated using Agilent ZORBAX Eclipse Plus C18 1.8 μm, 2.1 mm x 50 mm and Waters Xevo TQ-S micro Triple Quadrupole/ACQUITY UPLC H-Class. […] Pharmacokinetic parameters were modeled using the Phoenix WinNonlin software package. […]
# [3] = Caco-2 permeability assay (apical to basolateral); type: in vitro ADME, human; conditions: for Papp A→B: Caco-2, Caco_Papp_Average
# How it was run: (§1)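 Caco-2 monolayers were grown on 0.4 μm Transwell inserts for 6 days. Peptides were applied apically at 50 μM with HBSS basolaterally and incubated 90 min at 37°C with shaking.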
# [4] = test system: Caco-2 cells; assay: Caco-2 permeability assay (apical to basolateral); type: in vitro ADME, human; conditions: Caco-2
# How it was run: as §1
# [5] = in vitro; conditions: PAMPA, PAMPA_Papp_Avg
# [6] = D8.3.p1 IV 1 mg/kg, individual mice M1, M2, M3, 1 mg/kg
# [7] = D8.3.p1 PO 5 mg/kg, individual mice M1, M2, M3, 5 mg/kg
# [8] = D8.3.p1 SQ 5 mg/kg, individual mice M1, M2, M3
# [9] = female, Balb/C, mouse, in vivo, iv, 1 mg/kg, Plasma level
# [10] = female, Balb/C, mouse, in vivo, sc, 5 mg/kg, Plasma level
smiles,measurement,setting,value
"CC[C@@H](C)[C@H]1NC(=O)[C@@H](CC(C)C)NC(=O)[C@@H](CC(C)C)N(C)C(=O)[C@@H]2CCCN2C(=O)[C@@H](C(C)C)NC(=O)[C@H](CC(C)C)NC(=O)[C@@H](CC(C)C)N(C)C(=O)[C@@H]2CCCN2C1=O [Design D8.3.p1, DLEU DVAL PRO *DLEU DLEU DILE PRO *DLEU] (cyclo(L[dV]P[dNMeL][dL][dI]P[dNMeL]))",PAMPA_R1,[1],5.23E-06
same,PAMPA_R3,[1],3.90E-06
same,CLP,[2]; [6],37.62 mL/min/kg and 49.17 mL/min/kg and 38.55 mL/min/kg
same,MRT,[2]; [6],15.45 min and 13.12 min and 15.23 min
same,T1/2,[2]; [6],14.5 min and 10.5 min and 11.24 min
same,VSS,[2]; [6],0.79 L/kg and 0.75 L/kg and 0.62 L/kg
same,VZ,[2]; [6],0.89 L/kg and 0.87 L/kg and 0.59 L/kg
same,C0,"[2]; D8.3.p1 IV 1 mg/kg, individual mice M1, M2, M3, 1 mg/kg, read-out: C0",1610 nM and 1470 nM
same,Half-life T1/2,"[2]; D8.3.p1 IV 1 mg/kg, mean n=3",12.08 min
same,Mean residence time MRT,"[2]; D8.3.p1 IV 1 mg/kg, mean n=3",14.60 min
same,Plasma clearance CLP,"[2]; D8.3.p1 IV 1 mg/kg, mean n=3",41.78 mL/min/kg
same,Volume of distribution @ steady state VSS,"[2]; D8.3.p1 IV 1 mg/kg, mean n=3",0.72 ± 0.09 L/kg
same,Volume of distribution during elimination phase VZ,"[2]; D8.3.p1 IV 1 mg/kg, mean n=3",0.78 ± 0.17 L/kg
same,C0,"[2]; D8.3.p1 IV 1 mg/kg, mean n=3, read-out: Initial concentration C0",1530 ± 70 nM
same,Oral bioavailability F,"[2]; D8.3.p1 PO 5 mg/kg vs IV 1 mg/kg, mean",10.74%
same,Cl/F,[2]; [7],0.0112 L/min and 0.00671 L/min and 0.00706 L/min
same,T1/2,[2]; [7],23.33 min and 18.86 min and 45.25 min
same,Tmax,[2]; [7],15 min and 30 min
same,Cmax,"[2]; D8.3.p1 PO 5 mg/kg, individual mice M1, M2, M3, 5 mg/kg, read-out: Cmax",220 nM and 190 nM
same,Apparent clearance Cl/F,"[2]; D8.3.p1 PO 5 mg/kg, mean n=3",0.00834 L/min
same,Half-life T1/2,"[2]; D8.3.p1 PO 5 mg/kg, mean n=3",29.15 min
same,Time of max concentration Tmax,"[2]; D8.3.p1 PO 5 mg/kg, mean n=3",25 ± 0.01 min
same,Cmax,"[2]; D8.3.p1 PO 5 mg/kg, mean n=3, read-out: Max concentration Cmax",210 ± 20 nM
same,Cl/F,[2]; [8],0.000617 L/min and 0.000577 L/min and 0.000312 L/min
same,T1/2,[2]; [8],111.2 min and 101.86 min and 250.78 min
same,Tmax,[2]; [8],60 min and 30 min
same,Cmax,"[2]; D8.3.p1 SQ 5 mg/kg, individual mice M1, M2, M3, read-out: Cmax",840 nM and 1080 nM and 930 nM
same,Half-life T1/2,"[2]; D8.3.p1 SQ 5 mg/kg, mean n=3",154.61 min
same,Time of max concentration Tmax,"[2]; D8.3.p1 SQ 5 mg/kg, mean n=3",50 ± 17.32 min
same,Cmax,"[2]; D8.3.p1 SQ 5 mg/kg, mean n=3, read-out: Max concentration Cmax",950 ± 120 nM
same,Plasma level,"[2]; female, Balb/C, mouse, in vivo, iv, 1 mg/kg, 5 min",990 nM
same,Plasma level,"[2]; female, Balb/C, mouse, in vivo, iv, 1 mg/kg, 0.25 h",630 nM
same,level at time molar at 5 min,[2]; [9],1110 nM
same,level at time molar at 0.25 h,[2]; [9],420 nM
same,level at time molar at 0.5 h,[2]; [9],190 nM
same,Plasma level,"[2]; female, Balb/C, mouse, in vivo, sc, 5 mg/kg, 0.25 h",700 nM
same,Plasma level,"[2]; female, Balb/C, mouse, in vivo, sc, 5 mg/kg, 0.5 h",710 nM
same,Plasma level,"[2]; female, Balb/C, mouse, in vivo, sc, 5 mg/kg, 2 h",880 nM
same,Plasma level,"[2]; female, Balb/C, mouse, in vivo, sc, 5 mg/kg, 6 h",230 nM
same,level at time molar at 0.25 h,[2]; [10],510 nM
same,level at time molar at 0.5 h,[2]; [10],540 nM
same,level at time molar at 1 h,[2]; [10],840 nM
same,level at time molar at 2 h,[2]; [10],720 nM
same,level at time molar at 6 h,[2]; [10],150 nM
same,level at time molar at 24 h,[2]; [10],20 nM
same,level at time molar at 0.5 h,"[2]; female, Balb/C, mouse, in vivo, sc, D8.3.p1 SQ 5 mg/kg, 30 min, individual mice M1, M2, M3, read-out: Plasma level",1080 nM
same,AUC(0-inf),"[2]; female, Balb/C, mouse, in vivo, D8.3.p1 PO 5 mg/kg, mean n=3",0.238 µM·h
same,AUC(0-t),"[2]; female, Balb/C, mouse, in vivo, D8.3.p1 PO 5 mg/kg, mean n=3, read-out: AUC0-t (converted)",0.182 µM·h
same,CL/F,"[2]; female, Balb/C, mouse, plasma, sc, D8.3.p1 SQ 5 mg/kg, mean n=3, read-out: Apparent clearance Cl/F",0.502 mL/min
same,Tmax,"[2]; mouse, in vivo, 5 mg/kg, Tmax",60 min
same,Plasma level,"[2]; mouse, in vivo, iv, 1 mg/kg, 5 min",1070 ± 70 nM
same,Plasma level,"[2]; mouse, in vivo, iv, 1 mg/kg, 0.5 h",270 ± 90 nM
same,Plasma level,"[2]; mouse, in vivo, iv, 1 mg/kg, 1 h",60 ± 40 nM
same,C0,"[2]; mouse, in vivo, iv, 1 mg/kg, C0",1520 nM
same,Plasma level,"[2]; mouse, in vivo, po, 5 mg/kg, 1 h",120 ± 40 nM
same,Plasma level,"[2]; mouse, in vivo, po, 5 mg/kg, 2 h",10 nM
same,Cmax,"[2]; mouse, in vivo, po, 5 mg/kg, Cmax",230 nM
same,Tmax,"[2]; mouse, in vivo, po, 5 mg/kg, Tmax",30 min
same,Plasma level,"[2]; mouse, in vivo, sc, 5 mg/kg, 0.25 h",610 ± 130 nM
same,Plasma level,"[2]; mouse, in vivo, sc, 5 mg/kg, 0.5 h",780 ± 280 nM
same,Plasma level,"[2]; mouse, in vivo, sc, 5 mg/kg, 1 h",900 ± 50 nM
same,Plasma level,"[2]; mouse, in vivo, sc, 5 mg/kg, 2 h",780 ± 90 nM
same,Plasma level,"[2]; mouse, in vivo, sc, 5 mg/kg, 4 h",340 ± 170 nM
same,Plasma level,"[2]; mouse, in vivo, sc, 5 mg/kg, 6 h",130 ± 120 nM
same,Plasma level,"[2]; mouse, in vivo, sc, 5 mg/kg, 24 h",10 ± 0 nM
same,Papp A→B,[3],11.8 ×10⁻⁶ cm/s
same,Caco_R1,[4],13.1
same,Caco_R3,[4],8.9
"CC[C@@H](C)[C@H]1NC(=O)[C@@H]2CCCN2C(=O)[C@@H]([C@H](C)CC)NC(=O)CN(C)C(=O)[C@H](CC(C)C)NC(=O)[C@@H](Cc2ccccc2)NC(=O)[C@H](CC(C)C)N(C)C(=O)[C@H]2CCCN2C(=O)[C@@H](CC(C)C)NC(=O)[C@H](CC(C)C)NC(=O)[C@H]2CCCN2C1=O [Design D11.2, DILE DPRO LEU DLEU DPRO *LEU DPHE LEU *GLY DILE PRO] (cyclo(L[Sar][dI]P[dI][dP]L[dL][dP][NMeL][dF]))",PAMPA_R1,[1],1.82E-06
same,PAMPA_R3,[1],2.50E-06
same,Papp,[5],2.15 ×10⁻⁶ cm/s
same,Papp A→B,[3],2.82 ×10⁻⁶ cm/s
same,Caco_R1,[4],1.94
same,Caco_R3,[4],2.65
"CC[C@@H](C)[C@H]1NC(=O)[C@H]([C@@H](C)CC)NC(=O)[C@H](CC(C)C)N(C)C(=O)[C@H]2CCCN2C(=O)[C@@H]([C@H](C)CC)NC(=O)[C@@H]([C@H](C)CC)N(C)C(=O)[C@H](CC(C)C)NC(=O)[C@H]2CCCN2C(=O)[C@@H]2CCCN2C(=O)[C@H](C(C)C)NC(=O)[C@H]2CCCN2C1=O [Design D11.3, VAL PRO DPRO LEU *DILE DILE DPRO *LEU ILE DILE DPRO] (cyclo(I[dI][dP]VP[dP]L[dNMeI][dI][dP][NMeL]))",PAMPA_R1,[1],1.91E-06
same,PAMPA_R3,[1],1.10E-06
same,Papp,[5],1.48 ×10⁻⁶ cm/s
same,Papp,[3]; Caco-2,9.11 ×10⁻⁶ cm/s
same,Papp A→B,[3],9.11 ×10⁻⁶ cm/s
same,Caco_R1,[4],7.29
same,Caco_R3,[4],11.26
